Data taken from patent publication US20060194835A1, “Compositions and methods for treating or preventing flaviviridae infections” (priority 2005, published 2006).

Legend:
in vitro [1] = details: bovine
BVDV [2] = assay: Double combination checkerboard CPE assay, MacSynergy II and isobolograms; format: cell-based, bovine viral diarrhea virus
Protocol: A double combination assay was performed using MDBK cells infected with BVDV in an inhibition of cytopathic effect (CPE) assay as described in Example 2. The double drug combinations were measured by creating a “checkerboard” of drug concentrations used on cell monolayers in microtiter plates, with one drug being titrated horizontally and the other drug titrated vertically, and each double combination being tested at least twice.
The EC50 values of a first test compound derived while in combination with a second test compound were plotted against the corresponding concentration of the second test compound to create an isobole (dose pair). All of the isoboles were plotted in an isobologram to determine the presence of synergy, antagonism or additivity for the combined test compounds. […] The line connecting the monotherapy EC50 values represents the theoretical additivity effect values for the two compounds.
In addition to generating isobolograms, the checkerboard data was imported into MacSynergy™ II software to graph the observed synergy (or additive or antagonism) volumes for the double combinations tested. Briefly, the calculated additive interactions were subtracted from the experimentally determined values to reveal the corresponding drug concentrations at which a synergistic (indicated by positive % values) or antagonistic (indicated by negative % values) effect is observed. The greater the positive percent volume observed, the greater the synergy between the two compounds. […] In contrast, any value about or less than −25 μM^2% or μM(IU/mL) % is indicative of a significant antagonistic effect. The data presented in Table 5 represent volumes of synergy or antagonism with 95% confidence. The confidence level was calculated using a Bonferroni adjustment as a conservative estimate of significance to statistically evaluate the data.

BVDV [3] = assay: Protection of MDBK cells from BVDV-induced cytopathicity (CPE reduction, MTS/PMS); format: cell-based, bovine viral diarrhea virus; details: Bovine viral diarrhea virus isolates and strains, MDBK, 50% CPE reduction; MOI 0.01
[4] = Pharmacokinetics of orally administered celgosivir in rats (plasma castanospermine); format: in vivo, Male Sprague-Dawley rats; details: normal rats; loperamide 0.35 mg/kg
Protocol: The purpose of this study was to evaluate the effect of an anti-diarrheal agent on the pharmacokinetics (PK) of orally administered celgosivir. In addition, the effect of anti-diarrheal agents on celgosivir PK was investigated. The pharmacokinetics of celgosivir was assessed by following the plasma profile of celgosivir's primary metabolite, castanospermine. By way of background, orally administered celgosivir, although well tolerated in humans, does produce side effects in the gastrointestinal tract, including flatulence and mild to moderate diarrhea. Loperamide hydrochloride, an anti-motility agent that is an active ingredient found in some over-the-counter medications used for symptomatic relief of acute and chronic diarrhea, was investigated for its effect on the PK of orally administered celgosivir. […]
At various time-points after celgosivir administration, blood samples were withdrawn from animals via the tail vein. Plasma samples were generated and stored frozen until analyzed. Plasma samples were analyzed for castanospermine, the major metabolite of celgosivir, using LC/MS. […] Celgosivir pharmacokinetics was assessed by following the plasma concentration of its primary metabolite, castanospermine. Pharmacokinetic parameters were calculated according to a two-compartment model with bio-exponential decay using the method of residuals. […]

BVDV strain NADL = assay: Inhibition of viral release from BVDV-infected MDBK cells (plaque titer); details: for EC50 / EC90: Bovine viral diarrhea virus isolates and strains, MDBK, 24 h
BVDV [5] = assay: Triple combination checkerboard CPE assay (celgosivir or castanospermine + interferon-α2b + ribavirin), MacSynergy II; format: cell-based, bovine viral diarrhea virus; details: for EC50: Bovine viral diarrhea virus isolates and strains, read-out: Average Celgosivir EC50
Protocol: Each double or triple combination was performed twice. The combination efficacy data were analyzed using the MacSynergy™ II software program as described herein.
Each double or triple combination was performed twice. The combination efficacy data were analyzed using the MacSynergy™ II software program as described herein. The EC50 for each of celgosivir and castanospermine was calculated from the triple combination studies described in Example 6.
Each double or triple combination was performed twice. The combination efficacy data were analyzed using the MacSynergy™ software program as described herein. The EC50 for interferon-α2b was calculated from the triple combination studies described in Example 6.

in vitro [6] = details: bovine; remark: listed apart in the source
[7] = Cytotoxicity of test compound in MDBK cells in the absence of viral infection (Example 1); details: bovine, MDBK cells, uninfected
[8] = Drug cytotoxicity in uninfected MDBK cells (MTS/PMS); details: bovine

CCCC(=O)O[C@H]1CN2CC[C@H](O)[C@@H]2[C@@H](O)[C@@H]1O [Celgosivir, [1S-(1α,6β,7α,8β,8aβ)]-octahydro-1,6,7,8-indolizinetetrol 6-butanoate]
CC50 at 24 h (in vitro [1]): > 2000 µM | fold reduction of EC50 of celgosivir (BVDV [2]; at 2 μM ribavirin): 3 fold | fold reduction of EC50 of celgosivir (BVDV [2]; at 2.2 μM NM-107): more than 8 fold | EC50 (BVDV [3]): 7.7 ± 3 µM | effect of concomitant anti-diarrheal agent on the PK of celgosivir [4]: no significant effect | EC50 (BVDV strain NADL): 2 ± 1.3 µM | EC90 (BVDV strain NADL): 7.6 ± 2.3 µM | TI (Therapeutic Index, CC50/EC50) (BVDV strain NADL; MOI = 1): >1000 | EC50 (BVDV [5]; Ribavirin 0 μM, Interferon-α2b 0 IU/mL): ~6.5 µM | EC50 (BVDV [5]; Ribavirin 0 μM, Interferon-α2b 0.7 IU/mL): 4.8 ± 0.7 µM | EC50 (BVDV [5]; Ribavirin 0 μM, Interferon-α2b 2.2 IU/mL): 3.9 ± 0.9 µM | EC50 (BVDV [5]; Ribavirin 0 μM, Interferon-α2b 6.7 IU/mL): 1.6 ± 0.6 µM | EC50 (BVDV [5]; Ribavirin 0 μM, Interferon-α2b 20 IU/mL): < 0.4 µM | EC50 (BVDV [5]; Ribavirin 0.37 μM, Interferon-α2b 0.7 IU/mL): 4.3 ± 1 µM | EC50 (BVDV [5]; Ribavirin 0.37 μM, Interferon-α2b 2.2 IU/mL): 2.7 ± 1.3 µM | EC50 (BVDV [5]; Ribavirin 0.37 μM, Interferon-α2b 6.7 IU/mL): 1 ± 0.7 µM | EC50 (BVDV [5]; Ribavirin 0.37 μM, Interferon-α2b 20 IU/mL): < 0.3 µM | EC50 (BVDV [5]; Ribavirin 1.1 μM, Interferon-α2b 0.7 IU/mL): 2.9 ± 0.9 µM | EC50 (BVDV [5]; Ribavirin 1.1 μM, Interferon-α2b 2.2 IU/mL): 2.1 ± 0.2 µM | EC50 (BVDV [5]; Ribavirin 1.1 μM, Interferon-α2b 6.7 IU/mL): < 0.9 µM | EC50 (BVDV [5]; Ribavirin 1.1 μM, Interferon-α2b 20 IU/mL): < 0.3 µM | EC50 (BVDV [5]; Ribavirin 3.3 μM, Interferon-α2b 0.7 IU/mL): < 1 µM | EC50 (BVDV [5]; Ribavirin 3.3 μM, Interferon-α2b 2.2 IU/mL): < 0.3 µM | EC50 (BVDV [5]; Ribavirin 3.3 μM, Interferon-α2b 6.7 IU/mL): < 0.3 µM | EC50 (BVDV [5]; Ribavirin 3.3 μM, Interferon-α2b 20 IU/mL): < 0.3 µM | dose-dependent reduction in EC50 (BVDV [5]; upon the addition of increasing concentrations of interferon-α2b): up to 26 fold | CC50 (in vitro [6]): > 300 µM

NC(=O)c1ncn([C@@H]2O[C@H](CO)[C@@H](O)[C@H]2O)n1 [Ribavirin, ribavirin, reference compound]
EC50 (BVDV [3]): 4.4 ± 2 µM | CC50 at 24 h [7]: 250 µM | EC50 (BVDV strain NADL): 1.5 ± 1 µM | EC90 (BVDV strain NADL): 5.7 ± 2.7 µM | CC50 [8]: ≥ 25 µM
